This is an account of results in the NIST ThermoML archive (doi:10.1021/je400722h).

For orientation: speed of sound means how fast a sound wave travels through the sample. One may read the mass density as mass per unit of volume.

The conditions of data set [1]: 101 kPa, Liquid; for speed of sound: Pulse-echo method; for mass density: Vibrating tube method.
A short description of data set [2]: xn = mol fraction of the nth substance listed. Particulars: 101 kPa, Liquid, x2 = 0; for speed of sound: Pulse-echo method; for mass density: Vibrating tube method.

The structures appear in SMILES notation. Numbers after ± are expanded uncertainties.

In the case of `C1COCO1` [1,3-dioxolane], the speed of sound in data set [1] (298.15 K) came out at 1338.7 ± 1.1 m/s; in data set [1] (303.15 K), 1316.8 ± 1 m/s; in data set [1] (308.15 K), 1294.7 ± 1 m/s. In addition, the mass density in data set [1] (298.15 K) amounted to 1058.9 ± 1 kg/m3; in data set [1] (303.15 K), 1052.6 ± 1 kg/m3; in data set [1] (308.15 K), 1046.3 ± 1 kg/m3.
Take `C1COCO1` [1,3-dioxolane] + Cc1ccccc1Cl: the values for the speed of sound in data set [2] (298.15 K), in data set [2] (303.15 K) and in data set [2] (308.15 K) were 1338.7 ± 1.1 m/s, 1316.8 ± 1 m/s and 1294.7 ± 1 m/s, respectively. The mass density in data set [2] (298.15 K) is reported as 1058.9 ± 1 kg/m3; in data set [2] (303.15 K), 1052.6 ± 1 kg/m3; in data set [2] (308.15 K), 1046.3 ± 1 kg/m3.
With `C1COCCO1` [1,4-dioxane], the figures for the speed of sound in data set [1] (298.15 K), in data set [1] (303.15 K) and in data set [1] (308.15 K) were 1346 ± 1.1 m/s, 1324.4 ± 1.1 m/s and 1302.5 ± 1.1 m/s, respectively. Further, the figures for the mass density in data set [1] (298.15 K), in data set [1] (303.15 K) and in data set [1] (308.15 K) were 1027.9 ± 1 kg/m3, 1022.3 ± 1 kg/m3 and 1016.6 ± 1 kg/m3, respectively.
Turning to `C1COCCO1` [1,4-dioxane] + Cc1ccccc1Cl, the speed of sound was found to be 1346 ± 1.1 m/s in data set [2] (298.15 K), 1324.4 ± 1.1 m/s in data set [2] (303.15 K) and 1302.5 ± 1.1 m/s in data set [2] (308.15 K). For the same compound, the mass density worked out at 1027.9 ± 1 kg/m3 in data set [2] (298.15 K), 1022.3 ± 1 kg/m3 in data set [2] (303.15 K) and 1016.6 ± 1 kg/m3 in data set [2] (308.15 K).
On to `Cc1ccccc1Cl` [2-chlorotoluene], for which the speed of sound in data set [1] (298.15 K) is given as 1298.7 ± 1.2 m/s; in data set [1] (303.15 K), 1280.7 ± 1.2 m/s; in data set [1] (308.15 K) it was 1262.7 ± 1.2 m/s. For the same compound, the mass density is listed as 1077.3 ± 1 kg/m3 in data set [1] (298.15 K), 1072.5 ± 1 kg/m3 in data set [1] (303.15 K) and 1067.6 ± 1 kg/m3 in data set [1] (308.15 K).
Regarding `C1CCOCC1` [tetrahydropyran], the results for the speed of sound in data set [1] (298.15 K), in data set [1] (303.15 K) and in data set [1] (308.15 K) were 1269.8 ± 1 m/s, 1246.8 ± 1 m/s and 1224.4 ± 1 m/s, respectively. The mass density was determined as 879.13 ± 1 kg/m3 in data set [1] (298.15 K), 873.99 ± 1 kg/m3 in data set [1] (303.15 K) and 868.83 ± 1 kg/m3 in data set [1] (308.15 K).
For the compound `C1CCOCC1` [tetrahydropyran] + Cc1ccccc1Cl, the speed of sound in data set [2] (298.15 K) is given as 1269.8 ± 1 m/s; in data set [2] (303.15 K) it was 1246.8 ± 1 m/s; in data set [2] (308.15 K) it was 1224.4 ± 1 m/s. The figures for the mass density in data set [2] (298.15 K), in data set [2] (303.15 K) and in data set [2] (308.15 K) were 879.13 ± 1 kg/m3, 873.99 ± 1 kg/m3 and 868.83 ± 1 kg/m3, respectively.
